Molecules are shown by their SMILES.

Experiment [1] has as its system Ts65Dn mice. As to the kind of experiment: Modified spontaneous alternation task (T-maze) in Ts65Dn mice (paper Examples 1 and 2). Conditions: 5 to 30 doses, 3 mg/kg in milk orally or 1 mg/kg i.p. The format is in vivo, mouse. The protocol:
(§1) Flumazenil may also be tested for its effects on declarative memory in the novel object recognition test and in a modified spontaneous alternation task. Wild-type and Ts65Dn mice may be administered flumazenil (3 mg/kg in milk via voluntary oral feeding or 1 mg/kg i.p.). The wild-type and Ts65Dn mice are administered from 5 to 30 doses of milk or milk-flumazenil (or saline or flumazenil solution i.p.). The mice are then subjected to two repetitions of novel object recognition testing or three daily T-maze sessions at the tail end of the treatment regimen. […] Comparison of treated and untreated Ts65Dn mice will provide controls for any possible arm bias in the spontaneous alternation task.
as §1, with “Bretazenil may” for “Flumazenil may”, “administered bretazenil” for “administered flumazenil”

In another experiment the test system is WT mice. As to the kind of experiment: Novel object recognition assay (Discrimination Index) in WT mice. The format is in vivo, mouse. The protocol:
(§2) Following baseline determinations and group assignments, WT and Ts65Dn mice received intraperitoneal (i.p.) injections once/day (08:00) for the two-week duration of the drug treatment regimen (FIG. 1). Drugs were dissolved in physiological saline. Two drops of Tween 80 were used to facilitate solution formation for flumazenil. Picrotoxin was initially made up at 50× concentration in 20% ethanol and then diluted down to a […] solution with 0.4% ETOH in saline. Doses of drugs were based on previous behavioral research in mice (1 mg/kg for PTX and 10 mg/kg for flumazenil). Injections were given in a volume of 10 ml/kg. A vehicle control was run along side the treatment groups (0.4% ETOH in saline).
(§3) FIG. 1 graphically depicts the protocol. After habituation to the animal facility, mice were tested for baseline behaviors in the open-field locomotor assay (LMA)(30 min session) and the novel object recognition assay. Primary experimental groups were divided by genotype (Ts65Dn mice and wild-type control littermates). These two groups were further divided into drug treatments (vehicle, PTX and flumazenil) with a targeted n-size of 8 mice/group (24 WT and 24 Ts65Dn mice total). The group assignments were made in a semi-random process due to constraints in animal availability (staggered shipping) and choice of initial treatment groups (e-mail documentation between Bilsky laboratory and Cypress Bioscience on file). Daily morning injections began on Day 1 and went through the morning of Day 14. On Days 7/8 and 14/15 (13:00) mice were tested in the behavioral assay. Mice were kept for an additional two weeks and re-tested on Days 21/22 and 28/29 to assess the duration of the drug treatment effect.
(§4) The novel object recognition task is based on the innate tendency of rodents to differentially explore novel objects over familiar ones. The task is well validated for evaluating rodent memory and the effects of drug treatments on learning/memory performance.
(§5) Mice were trained and tested once per week, each experimental session separated by a one-week interval. Mice were submitted to daily handling sessions, and given an opportunity to habituate to an open field arena (48 cm×48 cm wide×25 cm), where they were exposed to two different objects (complex protocol), during a 5-minute training session. Objects were made from various non-porous materials that differ in shape and color. Mice were unable to climb onto the objects and the objects were generally consistent in height and volume, and were roughly symmetrical on a horizontal plane. Objects were positioned in two corners of the apparatus. To control for odor cues, the open field arena and the objects are thoroughly cleaned with 90% ethanol, dried, and ventilated for a few minutes between mice.
(§6) A 5-minute testing session was conducted 24 h after training. Here, the mice were presented with the object they had explored the previous day, and a new item (the objects being alternatively positioned in one corner or another in a balanced fashion within a given week, and from one week to another). […]

The subject of experiment [2] is Ts65Dn mice. As to the kind of experiment: Novel object recognition assay (Discrimination Index) in Ts65Dn mice, model of Down syndrome. The experiment is classed as in vivo, mouse. Here is the method:
as §2, §3, §4, §5, §6

In the next experiment the test system is benzodiazepine receptors. Conditions: cited from earlier work.

Consider `CCOC(=O)c1ncn2c1CN(C)C(=O)c1cc(F)ccc1-2` [flumazenil, 8-fluoro-5,6-dihydro-5-methyl-6-oxo-4H-imidazo[1,5-a]benzodiazepine-3-carboxylic acid ethyl ester], for which, in the experiment on Ts65Dn mice [1], the spontaneous alternation result is given as “normal levels of alternation”. Also, the “Discrimination Index (DI)” value in the experiment with WT mice (Week 2 of drug therapy, versus vehicle) is given as “no differences”; with WT mice (Week 4 (2 weeks post dosing)), “slight negative DI”; in the experiment with Ts65Dn mice [2] (Week 1 of drug therapy, PTX 1 mg/kg, flumazenil 10 mg/kg i.p.) it was “positive effects”; with Ts65Dn mice [2] (Week 2 of drug therapy), “positive effects”. Also, in the experiment with Ts65Dn mice [2] (flumazenil 10 mg/kg i.p., conclusion), the “effect in the object recognition assay as compared to vehicle” value was “beneficial effect”. Also, in the experiment with benzodiazepine receptors (given orally or intravenously), the “antagonism of the effects of diazepam” value is on record as “effectively antagonizes”. Further, in the experiment with benzodiazepine receptors (oral 30 to 100 mg, normal adult human subjects), the “activity at oral dosing” value is listed as “partial benzodiazepine agonist”.

The values are drawn from patent US20090270373A1, “TREATMENT OF DOWN SYNDROM WITH BENZODIAZEPINE RECEPTOR ANTAGONISTS” (Cypress Biosciences, Inc., priority 2008, published 2009).
